Assay results reported in PMC9736855, “Discovery of 3-Amino-1H-pyrazole-Based Kinase Inhibitors to Illuminate the Understudied PCTAIRE Family” (International Journal of Molecular Sciences, 2022).

Experiments:
Assay in all cases: NanoBRET
Format in all cases: cell-based
[1] = target: T1, CDK11A/Cyclin L2 (Homo sapiens, UniProt Q9UQ88); conditions: read-out: NanoBRET EC50 ± SEM CDK11A/Cyclin L2
T1 sequence (Q9UQ88 1-783): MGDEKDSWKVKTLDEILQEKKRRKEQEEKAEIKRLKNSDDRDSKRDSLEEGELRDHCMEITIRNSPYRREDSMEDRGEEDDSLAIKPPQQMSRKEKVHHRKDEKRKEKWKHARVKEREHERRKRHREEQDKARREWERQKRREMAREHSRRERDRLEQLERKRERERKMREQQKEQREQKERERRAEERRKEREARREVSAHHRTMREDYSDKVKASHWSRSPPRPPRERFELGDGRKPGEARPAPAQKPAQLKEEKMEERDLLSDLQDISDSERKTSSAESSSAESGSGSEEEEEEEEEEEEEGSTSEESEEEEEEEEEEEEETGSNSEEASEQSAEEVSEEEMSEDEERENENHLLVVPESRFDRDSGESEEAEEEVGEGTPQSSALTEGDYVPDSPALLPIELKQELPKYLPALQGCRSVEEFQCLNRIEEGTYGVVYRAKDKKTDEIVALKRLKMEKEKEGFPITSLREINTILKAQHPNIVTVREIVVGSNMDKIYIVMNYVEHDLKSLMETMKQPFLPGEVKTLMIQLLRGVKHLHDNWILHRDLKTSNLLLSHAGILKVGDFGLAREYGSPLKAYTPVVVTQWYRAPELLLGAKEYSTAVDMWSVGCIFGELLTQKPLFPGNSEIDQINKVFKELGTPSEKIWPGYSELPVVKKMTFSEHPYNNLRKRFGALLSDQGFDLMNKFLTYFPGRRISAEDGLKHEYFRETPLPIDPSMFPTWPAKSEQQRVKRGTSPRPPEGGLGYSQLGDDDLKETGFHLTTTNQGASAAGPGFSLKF
T1 sequence (Q96S94 1-520 partner): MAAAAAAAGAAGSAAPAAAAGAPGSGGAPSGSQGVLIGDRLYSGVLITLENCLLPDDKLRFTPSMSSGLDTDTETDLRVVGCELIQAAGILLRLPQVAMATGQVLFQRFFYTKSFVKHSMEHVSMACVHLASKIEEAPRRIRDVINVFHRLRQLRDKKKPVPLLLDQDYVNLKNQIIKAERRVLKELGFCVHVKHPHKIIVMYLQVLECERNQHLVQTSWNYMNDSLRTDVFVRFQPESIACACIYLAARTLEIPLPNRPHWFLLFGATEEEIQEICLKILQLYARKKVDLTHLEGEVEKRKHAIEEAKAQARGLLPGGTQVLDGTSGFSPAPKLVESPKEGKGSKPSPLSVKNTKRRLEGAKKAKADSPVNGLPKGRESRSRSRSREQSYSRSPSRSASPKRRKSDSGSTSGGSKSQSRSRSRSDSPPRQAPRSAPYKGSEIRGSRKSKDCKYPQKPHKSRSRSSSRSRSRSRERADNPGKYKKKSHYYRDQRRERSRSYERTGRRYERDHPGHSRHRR
Procedure: (§1) The assay was performed as described previously. In brief: Full-length kinases were obtained as plasmids cloned in frame with a terminal NanoLuc-fusion (Promega, Madison, WI, USA), as specified in table (Table S6). Plasmids were transfected into HEK293T cells using FuGENE HD (Promega, E2312) and proteins were allowed to express for 20h. Serially diluted inhibitor and NanoBRET Kinase Tracer (Promega) at a concentration determined previously as the KD,app (Table S5) were pipetted into white 384-well plates (Greiner 781207) using an Echo acoustic dispenser (Labcyte, San Jose, CA, USA). The corresponding protein-transfected cells were added and reseeded at a density of 2.5 × 10^5 cells/mL after trypsinization and resuspending in Opti-MEM without phenol red (Life Technologies, Carlsbad, CA, USA). The system was allowed to equilibrate for 2 h at 37 °C/5% CO2 prior to BRET measurements. To measure BRET, NanoBRET NanoGlo Substrate + Extracellular NanoLuc Inhibitor (Promega, N2540) was added as per the manufacturer’s protocol, and filtered luminescence was measured on a PHERAstar plate reader (BMG Labtech, Ortenberg, Germany) equipped with a luminescence filter pair (450 nm BP filter (donor) and 610 nm LP filter (acceptor)). Competitive displacement data were then graphed using GraphPad Prism 9 software using a normalized 3-parameter curve fit with the following equation: Y = 100/(1 + 10^(X–LogEC50)).

[2] = target: T2, CDK11A/Cyclin K (Homo sapiens, UniProt Q9UQ88); conditions: read-out: NanoBRET EC50 ± SEM CDK11A/Cyclin K
T2 sequence (Q9UQ88 1-783): T1 sequence (Q9UQ88 1-783)
Procedure: as §1

[3] = target: T3, CDK6/Cyclin D1 (Homo sapiens, UniProt Q00534); conditions: read-out: NanoBRET EC50 ± SEM CDK6/Cyclin D1
T3 construct: Full-length kinases were obtained as plasmids cloned in frame with a terminal NanoLuc-fusion; CS1810C118 (CCND1); host or cells: HEK293T
T3 sequence (Q00534 whole entry, the tested form may be a part): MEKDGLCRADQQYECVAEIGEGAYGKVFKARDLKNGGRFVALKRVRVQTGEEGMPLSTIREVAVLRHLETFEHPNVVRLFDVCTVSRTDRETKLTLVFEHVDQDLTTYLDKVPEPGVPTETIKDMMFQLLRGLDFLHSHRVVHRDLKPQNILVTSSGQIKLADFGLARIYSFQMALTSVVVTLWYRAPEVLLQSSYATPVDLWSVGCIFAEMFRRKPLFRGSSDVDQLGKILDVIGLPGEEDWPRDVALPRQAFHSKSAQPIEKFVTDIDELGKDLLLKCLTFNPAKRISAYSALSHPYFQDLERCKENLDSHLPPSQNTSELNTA
T3 sequence (P24385 whole entry partner, the tested form may be a part): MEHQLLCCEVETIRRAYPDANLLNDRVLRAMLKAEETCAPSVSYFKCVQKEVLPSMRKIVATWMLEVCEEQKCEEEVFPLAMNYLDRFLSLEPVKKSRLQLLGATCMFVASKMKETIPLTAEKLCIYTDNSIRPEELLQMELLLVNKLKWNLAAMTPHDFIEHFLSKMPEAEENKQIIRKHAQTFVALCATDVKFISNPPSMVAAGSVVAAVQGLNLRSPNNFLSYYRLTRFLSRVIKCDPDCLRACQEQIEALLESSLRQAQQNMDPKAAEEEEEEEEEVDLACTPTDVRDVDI
Procedure: as §1

[4] = target: CDK11B/Cyclin K (Homo sapiens, UniProt P21127); conditions: read-out: NanoBRET EC50 ± SEM CDK11B/Cyclin K
Chain of CDK11B/Cyclin K (P21127 whole entry): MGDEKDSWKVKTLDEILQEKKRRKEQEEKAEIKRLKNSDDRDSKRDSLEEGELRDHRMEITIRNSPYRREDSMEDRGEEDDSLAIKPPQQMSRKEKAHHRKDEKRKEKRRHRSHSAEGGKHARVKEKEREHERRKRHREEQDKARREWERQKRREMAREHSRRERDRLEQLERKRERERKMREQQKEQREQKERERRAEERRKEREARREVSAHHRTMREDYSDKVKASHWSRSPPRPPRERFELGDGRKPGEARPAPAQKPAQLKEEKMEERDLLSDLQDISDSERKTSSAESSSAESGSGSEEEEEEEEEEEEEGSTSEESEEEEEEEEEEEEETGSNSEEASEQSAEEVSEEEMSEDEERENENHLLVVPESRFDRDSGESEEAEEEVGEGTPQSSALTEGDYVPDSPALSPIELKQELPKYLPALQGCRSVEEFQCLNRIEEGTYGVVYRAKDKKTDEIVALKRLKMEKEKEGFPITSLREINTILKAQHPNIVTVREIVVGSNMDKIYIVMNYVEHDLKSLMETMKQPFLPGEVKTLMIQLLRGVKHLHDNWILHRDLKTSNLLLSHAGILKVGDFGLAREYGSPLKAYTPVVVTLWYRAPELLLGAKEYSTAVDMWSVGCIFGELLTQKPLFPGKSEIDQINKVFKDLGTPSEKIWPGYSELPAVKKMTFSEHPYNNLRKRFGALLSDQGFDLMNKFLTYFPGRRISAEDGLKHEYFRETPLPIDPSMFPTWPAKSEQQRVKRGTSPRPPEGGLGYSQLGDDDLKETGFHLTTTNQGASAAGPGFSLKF
Procedure: as §1

[5] = target: T4, CDK2/Cyclin E1 (Homo sapiens, UniProt P24941); conditions: read-out: NanoBRET EC50 ± SEM CDK2/Cyclin E1
T4 construct: Full-length kinases were obtained as plasmids cloned in frame with a terminal NanoLuc-fusion; CS1810C171 (CCNE1); host or cells: HEK293T
Procedure: as §1

[6] = target: CDK11B/Cyclin L2 (Homo sapiens, UniProt P21127); conditions: read-out: NanoBRET EC50 ± SEM CDK11B/Cyclin L2
Chain of CDK11B/Cyclin L2 (P21127 whole entry, one chain of several): as the sequence (P21127 whole entry) above
Procedure: as §1

[7] = target: CDK10/Cyclin L2 (Homo sapiens, UniProt Q15131); conditions: read-out: NanoBRET EC50 ± SEM CDK10/Cyclin L2
Chain of CDK10/Cyclin L2 (Q15131 whole entry): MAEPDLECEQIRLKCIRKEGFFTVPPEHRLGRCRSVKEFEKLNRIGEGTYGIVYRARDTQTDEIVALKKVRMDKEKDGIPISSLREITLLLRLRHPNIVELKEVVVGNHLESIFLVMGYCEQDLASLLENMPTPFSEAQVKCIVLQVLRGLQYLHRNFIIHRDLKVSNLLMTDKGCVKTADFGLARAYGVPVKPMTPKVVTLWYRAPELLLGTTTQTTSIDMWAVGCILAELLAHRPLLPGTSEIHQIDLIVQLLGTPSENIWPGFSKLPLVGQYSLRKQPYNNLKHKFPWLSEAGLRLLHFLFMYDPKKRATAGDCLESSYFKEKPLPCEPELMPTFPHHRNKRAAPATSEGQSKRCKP
Procedure: as §1

[8] = target: CDK18/Cyclin Y (Homo sapiens, UniProt Q07002); conditions: read-out: NanoBRET EC50 ± SEM CDK18/Cyclin Y
Chain of CDK18/Cyclin Y (Q07002 whole entry): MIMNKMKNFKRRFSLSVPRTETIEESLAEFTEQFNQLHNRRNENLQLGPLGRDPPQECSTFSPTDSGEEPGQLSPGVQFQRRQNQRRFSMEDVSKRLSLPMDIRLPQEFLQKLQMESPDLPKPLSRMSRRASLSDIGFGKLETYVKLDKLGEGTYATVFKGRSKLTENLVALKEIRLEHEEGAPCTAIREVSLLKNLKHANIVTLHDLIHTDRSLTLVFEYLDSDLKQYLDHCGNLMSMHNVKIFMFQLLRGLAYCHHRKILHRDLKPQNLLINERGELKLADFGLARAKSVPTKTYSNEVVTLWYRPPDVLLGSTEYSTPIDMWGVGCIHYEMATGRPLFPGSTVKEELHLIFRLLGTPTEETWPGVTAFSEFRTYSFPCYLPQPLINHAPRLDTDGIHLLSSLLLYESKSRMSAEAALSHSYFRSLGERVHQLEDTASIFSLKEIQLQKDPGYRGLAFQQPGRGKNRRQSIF
Chain of CDK18/Cyclin Y (Q8ND76 2-341 partner limits assumed): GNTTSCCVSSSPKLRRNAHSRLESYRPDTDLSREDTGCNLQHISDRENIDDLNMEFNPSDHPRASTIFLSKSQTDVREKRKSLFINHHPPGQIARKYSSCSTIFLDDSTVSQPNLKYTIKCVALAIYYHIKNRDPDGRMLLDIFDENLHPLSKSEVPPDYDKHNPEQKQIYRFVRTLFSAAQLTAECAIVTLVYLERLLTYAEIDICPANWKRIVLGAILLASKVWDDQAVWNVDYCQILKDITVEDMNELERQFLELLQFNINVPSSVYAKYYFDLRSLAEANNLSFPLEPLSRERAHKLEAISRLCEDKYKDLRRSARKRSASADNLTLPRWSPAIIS
Procedure: as §1

[9] = target: T5, CDK2/Cyclin A1 (Homo sapiens, UniProt P24941); conditions: read-out: NanoBRET EC50 ± SEM CDK2/Cyclin A1
T5 construct: Full-length kinases were obtained as plasmids cloned in frame with a terminal NanoLuc-fusion; CS1810C172 (CCNA1); host or cells: HEK293T
Procedure: as §1

[10] = target: T6, CDK9/Cyclin T1 (Homo sapiens, UniProt P50750); conditions: read-out: NanoBRET EC50 ± SEM CDK9/Cyclin T1
T6 construct: Full-length kinases were obtained as plasmids cloned in frame with a terminal NanoLuc-fusion; CS1810C177 (CCNT1); host or cells: HEK293T
T6 sequence (P50750 whole entry, the tested form may be a part): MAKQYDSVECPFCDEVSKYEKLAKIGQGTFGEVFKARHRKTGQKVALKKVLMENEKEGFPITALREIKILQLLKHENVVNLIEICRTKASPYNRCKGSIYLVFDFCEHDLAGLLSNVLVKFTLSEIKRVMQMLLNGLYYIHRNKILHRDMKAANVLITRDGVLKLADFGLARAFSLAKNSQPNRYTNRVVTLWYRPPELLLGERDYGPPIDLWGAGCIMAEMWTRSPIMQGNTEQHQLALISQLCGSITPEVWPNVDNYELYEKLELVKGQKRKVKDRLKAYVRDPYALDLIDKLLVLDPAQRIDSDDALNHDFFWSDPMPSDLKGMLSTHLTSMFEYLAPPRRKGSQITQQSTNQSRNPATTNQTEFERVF
T6 sequence (O60563 whole entry partner, the tested form may be a part): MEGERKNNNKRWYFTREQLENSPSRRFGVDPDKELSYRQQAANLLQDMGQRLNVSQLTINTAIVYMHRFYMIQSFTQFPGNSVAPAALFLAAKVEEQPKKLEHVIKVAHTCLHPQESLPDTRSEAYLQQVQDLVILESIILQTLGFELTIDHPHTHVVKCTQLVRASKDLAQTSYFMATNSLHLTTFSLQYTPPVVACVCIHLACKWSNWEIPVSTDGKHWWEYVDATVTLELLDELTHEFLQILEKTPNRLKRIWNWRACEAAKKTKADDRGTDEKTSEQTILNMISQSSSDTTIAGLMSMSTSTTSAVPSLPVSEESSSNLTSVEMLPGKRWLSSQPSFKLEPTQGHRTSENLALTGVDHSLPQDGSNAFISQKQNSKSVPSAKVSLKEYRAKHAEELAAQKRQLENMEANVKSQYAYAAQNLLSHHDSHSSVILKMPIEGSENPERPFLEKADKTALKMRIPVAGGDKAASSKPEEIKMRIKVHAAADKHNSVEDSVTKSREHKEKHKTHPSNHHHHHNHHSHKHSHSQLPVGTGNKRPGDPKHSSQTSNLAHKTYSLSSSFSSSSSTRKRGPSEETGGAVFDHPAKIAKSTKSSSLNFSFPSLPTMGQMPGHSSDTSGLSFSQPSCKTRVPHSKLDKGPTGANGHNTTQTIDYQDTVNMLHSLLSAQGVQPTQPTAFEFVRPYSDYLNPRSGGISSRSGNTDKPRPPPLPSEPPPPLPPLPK
Procedure: as §1

Compound `CC(C)OC(=O)c1cc(Nc2ccnc(NCc3ccc(NC(=O)OC(C)(C)C)cc3)n2)n[nH]1` [42d, isopropyl 3-((2-((4-((tert-butoxycarbonyl)amino)benzyl)amino)pyrimidin-4-yl)amino)-1H-pyrazole-5-carboxylate] has an EC50 [1] of 2090 ± 599 nM, an EC50 [2] of 3100 ± 1350 nM and an EC50 [3] of 959 ± 391 nM. The EC50 [4] was 3860 ± 1050 nM, the EC50 [5] was 2600 ± 914 nM and the EC50 [6] was 2990 ± 1330 nM. For the same compound, the EC50 [7] was 333.6 ± 0.2 nM, the EC50 [8] was 128 ± 10.4 nM and the EC50 [9] was 32500 ± 13900 nM. For the same compound, the EC50 [10] was 408 ± 140 nM.
`CC(C)(C)OC(=O)Nc1ccc(CNc2nccc(Nc3cc(C(=O)OC(C)(C)C)[nH]n3)n2)cc1` [43d, tert-butyl 3-((2-((4-((tert-butoxycarbonyl)amino)benzyl)amino)pyrimidin-4-yl)amino)-1H-pyrazole-5-carboxylate] was tested, and the EC50 [1] was 3460 ± 1840 nM, the EC50 [2] was 7980 ± 3740 nM and the EC50 [3] was 1740 ± 206 nM. For the same compound, the EC50 [4] was 7960 ± 3290 nM, the EC50 [5] was 1860 ± 582 nM and the EC50 [6] was 3580 ± 1730 nM. For the same compound, the EC50 [7] was 651 nM, the EC50 [8] was 121 nM and the EC50 [9] was 1670 ± 420 nM. It also gave an EC50 [10] of 805 ± 240 nM.
Work on `N#CCc1ccc(Nc2nccc(Nc3cc(C4CC4)[nH]n3)n2)cc1` [compound 1, reference compound] yielded an EC50 [1] of 760 ± 460 nM, an EC50 [2] of 999 ± 476 nM and an EC50 [3] of 10.5 ± 3.8 nM. For the same compound, the EC50 [4] was 926 ± 649 nM, the EC50 [5] was 26.7 ± 6.3 nM and the EC50 [6] was 669 ± 406 nM. For the same compound, the EC50 [7] was 325 ± 36.4 nM, the EC50 [8] was 25 ± 8.9 nM and the EC50 [9] was 60 ± 41.1 nM. It also gave an EC50 [10] of 86.5 ± 10.9 nM.
In the case of `COC(=O)c1cc(Nc2ccnc(NCc3ccc(NC(=O)OC(C)(C)C)cc3)n2)[nH]n1` [21i, methyl 5-((2-((4-((tert-butoxycarbonyl)amino)benzyl)amino)pyrimidin-4-yl)amino)-1H-pyrazole-3-carboxylate], the EC50 [1] is reported as 20500 ± 11800 nM, the EC50 [2] is reported as 21100 ± 11000 nM and the EC50 [3] is reported as 7450 ± 1740 nM. For the same compound, the EC50 [4] was 22900 ± 3740 nM, the EC50 [5] was 20900 ± 5690 nM and the EC50 [6] was 16700 ± 7890 nM. For the same compound, the EC50 [7] was 7930 ± 2930 nM, the EC50 [8] was 1620 ± 287 nM and the EC50 [9] was 36700 ± 3320 nM. For the same compound, the EC50 [10] was 6870 ± 2190 nM.
